Data on 13 molecules can be found in the SangsterLogP compilation.

A short description of this data set: method code SF, from PMID: 5081587.
`O=NN(CCCl)C(=O)NC1CCCCC1Cl` (stereo not drawn) gave a logP of 2.73.

Turning to `O=P1(N(CCCl)CCCl)NCCCO1` (stereo not drawn), the lipophilicity (logP) amounted to 0.63.

As for `O=NN(CCCl)C(=O)NC1C=CCCC1` (stereo not drawn), the logP worked out at 2.45.

Regarding `CN(C)/N=N/c1nc[nH]c1C(N)=O`, the logP is -0.24.

In turn, `O=NN(CCCl)C(=O)NC1CCCC1` showed a lipophilicity (logP) of 2.19.

`O=NN(CCF)C(=O)NC1CCSCC1`: the lipophilicity (logP) came to 1.43.

`O=NN(CCCl)C(=O)NC1CCSCC1` gave a log partition coefficient (logP) of 2.07.

In turn, `O=NN(CCCl)C(=O)NCCCl` showed a log partition coefficient (logP) of 1.53.

As for `O=NN(CCCl)C(=O)NC1CCS(=O)(=O)CC1`, the logP was 0.19.

As for `O=NN(CCF)C(=O)NC1CSCSC1`, the log partition coefficient (logP) was found to be 1.54.

Turning to `O=NN(CCCl)C(=O)NC1CCC(=O)NC1=O` (stereo not drawn), the logP worked out at 0.37.

Consider `O=NN(CCCl)C(=O)NC1CC2CCC1C2` (stereo not drawn), for which the logP is 2.98.

For `O=NN(CCCl)C(=O)NC1CSCSC1`, the logP is 2.08.

The term logP denotes a log measure of how a compound divides between an organic and an aqueous phase. A high value points to a more lipophilic compound.
